Assay results published in ChEMBL document CHEMBL1145667, “Carboxyatractyloside: A Compound from Xanthium strumarium and Atractylis gummifera with Plant Growth Inhibiting Properties. The Probable "Inhibitor A"” (1983).
Activity calls are given as the source filed them. The calls are words filed in the database; no cut-off is given here.

What was measured:
[1] = test system: Triticum aestivum; assay: Growth inhibition of etiolated wheat coleoptiles at 1000 uM after 24 hrs at 22 degC in dark relative to control; format: functional; details: read-out: GI
[2] = test system: Triticum aestivum; assay: Growth inhibition of etiolated wheat coleoptiles at 10 uM after 24 hrs at 22 degC in dark relative to control; format: functional; details: read-out: GI
[3] = test system: Triticum aestivum; assay: Growth inhibition of etiolated wheat coleoptiles at 100 uM after 24 hrs at 22 degC in dark relative to control; format: functional; details: read-out: GI
[4] = test system: Triticum aestivum; assay: Growth inhibition of etiolated wheat coleoptiles at 0.60 to 0.90 retention factor by paper chromatograms relative to control; format: functional
[5] = test system: Nicotiana tabacum; assay: Growth inhibition of green house tobacco seedlings assessed as cupping of leaves at 100 uM within 24 hrs; format: functional, organism-based
[6] = test system: Zea mays; assay: Growth inhibition of green house corn seedling assessed as stunting at 100 uM after 72 hrs; format: functional, organism-based
[7] = test system: Zea mays; assay: Growth inhibition of green house corn seedling assessed as necrotic lesions at 10000 uM after 1 week relative to control; format: functional; details: 168 h, read-out: GI
[8] = test system: Triticum aestivum; assay: Growth inhibition of etiolated wheat coleoptiles at 0.10 to 0.20 retention factor by paper chromatograms relative to control; format: functional; set-up: scale not given: the % may be the effect or the level left
[9] = test system: Zea mays; assay: Growth inhibition of green house corn seedling assessed as necrotic lesions at 10000 uM after 72 hrs; format: functional, organism-based
[10] = test system: Triticum aestivum; assay: Growth inhibition of etiolated wheat coleoptiles at 0.20 to 0.30 retention factor by paper chromatograms relative to control; format: functional; set-up: scale not given: the % may be the effect or the level left
[11] = test system: Nicotiana tabacum; assay: Growth inhibition of green house tobacco seedlings assessed as cupping of leaves at 1000 uM within 24 hrs; format: functional, organism-based
[12] = test system: Zea mays; assay: Growth inhibition of green house corn seedling assessed as stunting at 10000 uM after 1 week relative to control; format: functional; details: 168 h, read-out: GI
[13] = test system: Zea mays; assay: Growth inhibition of green house corn seedling assessed as chlorosis at 1000 uM after 72 hrs; format: functional, organism-based
[14] = test system: Nicotiana tabacum; assay: Growth inhibition of green house tobacco seedlings assessed as cupping of the leaves at 100 uM at 18.5 degC after 24 hrs; format: functional, organism-based
[15] = test system: Zea mays; assay: Growth inhibition of green house corn seedling assessed as chlorosis at 100 uM after 72 hrs; format: functional, organism-based
[16] = test system: Zea mays; assay: Growth inhibition of green house corn seedling assessed as whorls and chlorosis of the leaf margins at 1000 uM relative to control; format: functional; details: read-out: GI
[17] = test system: Nicotiana tabacum; assay: Growth inhibition of green house tobacco seedlings assessed as cupping of the leaves at 100 uM after 72 hrs at 18.5 degC; format: functional, organism-based
[18] = test system: Zea mays; assay: Growth inhibition of green house corn seedling assessed as stunting at 1000 uM after 72 hrs; format: functional, organism-based
[19] = test system: Nicotiana tabacum; assay: Growth inhibition of green house tobacco seedlings assessed as cupping of leaves at 10000 uM within 24 hrs; format: functional, organism-based
[20] = test system: Nicotiana tabacum; assay: Growth inhibition of green house tobacco seedlings assessed as cupping of the leaves at 1000 uM after 72 hrs at 18.5 degC; format: functional, organism-based
[21] = test system: Nicotiana tabacum; assay: Growth inhibition of green house tobacco seedlings assessed as cupping of the leaves at 10000 uM after 72 hrs at 18.5 degC; format: functional, organism-based
[22] = test system: Nicotiana tabacum; assay: Growth inhibition of green house tobacco seedlings assessed as cupping of leaves resembling tobacco at 100 uM at 2 to 7 degC after 24 hrs; format: functional, organism-based
[23] = test system: Nicotiana tabacum; assay: Growth inhibition of green house tobacco seedlings assessed as cupping of leaves resembling tobacco at 10000 uM at 2 to 7 degC after 24 hrs; format: functional, organism-based
[24] = test system: Nicotiana tabacum; assay: Growth inhibition of green house tobacco seedlings assessed as cupping of the leaves at 10000 uM at 18.5 degC after 24 hrs; format: functional, organism-based
[25] = test system: Nicotiana tabacum; assay: Growth inhibition of green house tobacco seedlings assessed as cupping of leaves resembling tobacco at 1000 uM at 2 to 7 degC after 24 hrs; format: functional, organism-based
[26] = test system: Zea mays; assay: Growth inhibition of green house corn seedling at 10000 uM after 2 weeks relative to control; format: functional; details: 336 h, read-out: GI
[27] = test system: Nicotiana tabacum; assay: Growth inhibition of green house tobacco seedlings assessed as cupping of the leaves at 1000 uM at 18.5 degC after 24 hrs; format: functional, organism-based
[28] = test system: Zea mays; assay: Growth inhibition of green house corn seedling at 1000 uM after 2 weeks relative to control; format: functional; details: 336 h, read-out: GI
[29] = test system: Triticum aestivum; assay: Growth inhibition of etiolated wheat coleoptiles at 0.00 to 0.10 retention factor by paper chromatograms relative to control; format: functional; set-up: scale not given: the % may be the effect or the level left

Question: Which inhibition of growth at 1000 µM [1] does the source give for CC1=CC(=O)CC(C)(C)C1(O)/C=C/C(C)=C\C(=O)O (racemic) [ABSCISIC ACID] here?
Answer: 100%

Question: What about the inhibition of growth at 10 µM [2] of the same compound?
Answer: 69%

Question: What about the inhibition of growth at 100 µM [3] of the same compound?
Answer: 90%

Question: And the “growth inhibition (GI)” value [4]?
Answer: 100%

Question: For C=C1[C@H]2CC[C@H]3[C@]4(C)C[C@H](O[C@@H]5O[C@H](CO)[C@@H](OS(=O)(=O)O)[C@H](OS(=O)(=O)O)[C@H]5OC(=O)CC(C)C)CC(C(=O)[O-])(C(=O)[O-])[C@H]4CC[C@]3(C2)[C@H]1O.[K+].[K+] [POTASSIUM CARBOXYATRACTYLOSIDE], which Activity [5] is on record?
Answer: Active

Question: What about the Activity [6] of the same compound?
Answer: Active

Question: What about the inhibition of growth at 10000 µM [7] of the same compound?
Answer: 50%

Question: What about the Activity [8] of the same compound?
Answer: 76.7%

Question: And the Activity [9]?
Answer: Active

Question: And the Activity [10]?
Answer: 86.4%

Question: And the inhibition of growth at 1000 µM [1]?
Answer: 100%

Question: What about the Activity [11] of the same compound?
Answer: Active

Question: What about the inhibition of growth at 10000 µM [12] of the same compound?
Answer: 50%

Question: What about the inhibition of growth at 10 µM [2] of the same compound?
Answer: 48%

Question: What about the Activity [13] of the same compound?
Answer: Active

Question: And the Activity [14]?
Answer: Active

Question: What about the inhibition of growth at 100 µM [3] of the same compound?
Answer: 91%

Question: What about the Activity [15] of the same compound?
Answer: Active

Question: What about the inhibition of growth at 1000 µM [16] of the same compound?
Answer: 25%

Question: What about the Activity [17] of the same compound?
Answer: Active

Question: What about the Activity [18] of the same compound?
Answer: Active

Question: What about the Activity [19] of the same compound?
Answer: Active

Question: What about the Activity [20] of the same compound?
Answer: Active

Question: And the Activity [21]?
Answer: Active

Question: And the Activity [22]?
Answer: Active

Question: And the Activity [23]?
Answer: Active

Question: And the Activity [24]?
Answer: Active

Question: What about the Activity [25] of the same compound?
Answer: Active

Question: What about the inhibition of growth at 10000 µM [26] of the same compound?
Answer: 43%

Question: And the Activity [27]?
Answer: Active

Question: What about the inhibition of growth at 1000 µM [28] of the same compound?
Answer: 14%

Question: What about the Activity [29] of the same compound?
Answer: 88.4%
